Reference: EP4038059B1, “SUBSTITUTED CARBAZOLE COMPOUNDS” (Bristol-Myers Squibb Company, priority 2019, dated 2021)

Experiments:
Assay type in all cases: cell-based
[1] = target: T1, human TLR9 (Homo sapiens, UniProt Q9NR96); assay: TLR9 inhibition reporter assay (HEK-Blue SEAP); conditions: HEK-Blue cells overexpressing human TLR9, stimulated with ODN2006 5 nM, 22 h incubation
T1 construct: host or cells: HEK-Blue cells
T1 sequence (Q9NR96 26-1032): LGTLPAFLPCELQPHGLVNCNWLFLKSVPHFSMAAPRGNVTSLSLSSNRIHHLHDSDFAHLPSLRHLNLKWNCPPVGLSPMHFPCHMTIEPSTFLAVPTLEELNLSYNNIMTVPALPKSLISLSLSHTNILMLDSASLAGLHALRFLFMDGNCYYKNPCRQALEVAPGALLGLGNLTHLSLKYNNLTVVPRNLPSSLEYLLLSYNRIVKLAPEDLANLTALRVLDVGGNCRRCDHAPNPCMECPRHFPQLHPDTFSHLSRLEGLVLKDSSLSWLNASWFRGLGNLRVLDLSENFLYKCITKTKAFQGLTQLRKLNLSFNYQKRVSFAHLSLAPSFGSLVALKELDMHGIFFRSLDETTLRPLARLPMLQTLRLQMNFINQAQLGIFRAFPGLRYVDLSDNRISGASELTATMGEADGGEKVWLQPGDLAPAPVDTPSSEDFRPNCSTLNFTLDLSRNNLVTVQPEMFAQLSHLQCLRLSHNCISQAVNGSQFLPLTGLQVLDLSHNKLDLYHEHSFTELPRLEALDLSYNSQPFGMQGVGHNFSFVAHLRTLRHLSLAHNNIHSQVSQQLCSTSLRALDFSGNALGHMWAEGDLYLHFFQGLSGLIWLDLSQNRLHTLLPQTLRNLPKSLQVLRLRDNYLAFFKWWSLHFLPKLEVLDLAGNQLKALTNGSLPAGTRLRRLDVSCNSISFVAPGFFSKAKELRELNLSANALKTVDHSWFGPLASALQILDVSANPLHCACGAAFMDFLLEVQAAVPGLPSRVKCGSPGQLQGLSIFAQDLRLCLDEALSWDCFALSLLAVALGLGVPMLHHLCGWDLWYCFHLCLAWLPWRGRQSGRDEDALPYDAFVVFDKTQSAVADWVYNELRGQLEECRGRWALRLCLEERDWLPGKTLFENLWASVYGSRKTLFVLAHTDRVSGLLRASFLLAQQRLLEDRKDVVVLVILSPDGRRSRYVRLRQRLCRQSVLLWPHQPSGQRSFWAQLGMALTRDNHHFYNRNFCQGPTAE
Protocol: (§1) HEK-Blue™-cells (Invivogen) overexpressing human TLR7, TLR8 or TLR9 receptors were used for screening inhibitors of these receptors using an inducible SEAP (secreted embryonic alkaline phosphatase) reporter gene under the control of the IFN-β minimal promoter fused to five NF-κB and AP-1-binding sites. Briefly, cells are seeded into Greiner 384 well plates (15000 cells per well for TLR7, 20,000 for TLR8 and 25,000 for TLR9) and then treated with test compounds in DMSO to yield a final dose response concentration range of 0.05 nM - 50 µM. After a 30 minute compound pre-treatment at room temperature, the cells are then stimulated with a TLR7 ligand (gardiquimod at a final concentration of 7.5 µM), TLR8 ligand (R848 at a final concentration of 15.9 µM) or TLR9 ligand (ODN2006 at a final concentration of 5 nM) to activate NF-κB and AP-1 which induce the production of SEAP. After a 22 h incubation at 37°C, 5% CO2, SEAP levels are determined with the addition of HEK-Blue™ Detection reagent (Invivogen), a cell culture medium that allows for detection of SEAP, according to manufacturer's specifications. The percent inhibition is determined as the % reduction in the HEK-Blue signal present in wells treated with agonist plus DMSO alone compared to wells treated with a known inhibitor.

[2] = target: T2, human TLR8 (Homo sapiens, UniProt Q9NR97); assay: TLR8 inhibition reporter assay (HEK-Blue SEAP); conditions: HEK-Blue cells overexpressing human TLR8, stimulated with R848 15.9 µM, 22 h incubation
T2 construct: host or cells: HEK-Blue cells
T2 sequence (Q9NR97 27-1041): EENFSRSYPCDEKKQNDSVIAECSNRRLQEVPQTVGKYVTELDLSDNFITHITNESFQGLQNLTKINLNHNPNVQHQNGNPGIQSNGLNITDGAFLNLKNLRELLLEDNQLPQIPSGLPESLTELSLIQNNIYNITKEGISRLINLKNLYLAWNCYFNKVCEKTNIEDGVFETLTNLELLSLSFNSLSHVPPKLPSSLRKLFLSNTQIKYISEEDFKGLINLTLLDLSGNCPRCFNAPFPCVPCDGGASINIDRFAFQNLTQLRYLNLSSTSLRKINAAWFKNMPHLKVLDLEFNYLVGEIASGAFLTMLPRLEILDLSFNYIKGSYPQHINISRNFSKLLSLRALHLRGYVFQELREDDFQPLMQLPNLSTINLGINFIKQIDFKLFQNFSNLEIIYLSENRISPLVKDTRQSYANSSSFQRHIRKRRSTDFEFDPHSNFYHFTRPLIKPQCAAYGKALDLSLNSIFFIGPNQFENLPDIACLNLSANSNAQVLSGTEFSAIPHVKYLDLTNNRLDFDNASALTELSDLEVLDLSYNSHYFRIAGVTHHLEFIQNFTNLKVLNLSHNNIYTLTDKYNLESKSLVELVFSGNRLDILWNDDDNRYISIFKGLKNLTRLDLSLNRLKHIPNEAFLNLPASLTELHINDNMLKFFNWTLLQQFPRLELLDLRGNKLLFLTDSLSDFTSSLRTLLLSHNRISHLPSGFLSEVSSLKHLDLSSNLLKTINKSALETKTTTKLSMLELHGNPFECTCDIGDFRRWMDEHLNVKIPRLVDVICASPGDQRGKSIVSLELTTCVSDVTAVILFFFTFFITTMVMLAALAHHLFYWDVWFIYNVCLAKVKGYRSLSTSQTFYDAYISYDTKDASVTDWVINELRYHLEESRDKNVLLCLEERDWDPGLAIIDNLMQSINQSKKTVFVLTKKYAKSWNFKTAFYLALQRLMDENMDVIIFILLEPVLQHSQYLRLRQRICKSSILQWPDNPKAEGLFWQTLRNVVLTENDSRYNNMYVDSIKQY
Protocol: as §1

[3] = target: T3, human TLR7 (Homo sapiens, UniProt Q9NYK1); assay: TLR7 inhibition reporter assay (HEK-Blue SEAP); conditions: HEK-Blue cells overexpressing human TLR7, stimulated with gardiquimod 7.5 µM, 22 h incubation
T3 construct: host or cells: HEK-Blue cells
T3 sequence (Q9NYK1 27-1049): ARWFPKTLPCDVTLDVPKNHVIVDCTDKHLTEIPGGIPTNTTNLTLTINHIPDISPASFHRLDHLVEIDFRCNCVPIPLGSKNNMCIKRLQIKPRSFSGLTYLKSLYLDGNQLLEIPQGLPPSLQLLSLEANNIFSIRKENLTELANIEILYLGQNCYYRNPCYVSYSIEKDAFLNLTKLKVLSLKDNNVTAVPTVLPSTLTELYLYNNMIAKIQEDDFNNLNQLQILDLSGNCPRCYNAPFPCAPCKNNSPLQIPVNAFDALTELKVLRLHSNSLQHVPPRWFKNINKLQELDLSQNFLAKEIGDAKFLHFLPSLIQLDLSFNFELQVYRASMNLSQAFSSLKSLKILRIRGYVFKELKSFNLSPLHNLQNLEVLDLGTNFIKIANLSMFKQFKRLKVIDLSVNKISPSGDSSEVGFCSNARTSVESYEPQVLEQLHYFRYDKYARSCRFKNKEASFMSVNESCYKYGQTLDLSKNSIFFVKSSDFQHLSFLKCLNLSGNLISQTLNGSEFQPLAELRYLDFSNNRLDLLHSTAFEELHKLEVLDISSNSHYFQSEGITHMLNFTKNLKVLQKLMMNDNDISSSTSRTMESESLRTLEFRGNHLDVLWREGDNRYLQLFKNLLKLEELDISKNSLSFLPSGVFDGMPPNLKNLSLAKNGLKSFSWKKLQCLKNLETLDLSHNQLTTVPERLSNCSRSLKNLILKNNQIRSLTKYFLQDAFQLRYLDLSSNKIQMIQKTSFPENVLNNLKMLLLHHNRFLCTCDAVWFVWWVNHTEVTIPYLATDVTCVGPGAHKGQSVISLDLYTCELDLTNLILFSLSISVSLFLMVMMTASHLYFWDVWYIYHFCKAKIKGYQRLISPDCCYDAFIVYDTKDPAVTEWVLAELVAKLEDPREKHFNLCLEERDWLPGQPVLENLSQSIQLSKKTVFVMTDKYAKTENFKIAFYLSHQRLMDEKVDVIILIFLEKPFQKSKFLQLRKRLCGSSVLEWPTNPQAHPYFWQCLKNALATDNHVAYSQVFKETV
Protocol: as §1

Row | Structure (SMILES) | IC50 [1] [nM] | IC50 [2] [nM] | IC50 [3] [nM]
1 | COc1cc(-c2cc3[nH]c4ccc(C5CN(C6COC6)C5)cc4c3c(C)c2C)cn2ncnc12 [Example 36] | 861 | 1.8 | 5.6
2 | COc1cc(-c2cc3[nH]c4ccc(C5CN(CC(C)(C)O)C5)cc4c3c(C)c2C)cn2ncnc12 [Example 38] | 514 | 0.4 | 2.5
3 | COc1cc(-c2cc3[nH]c4ccc(C5CN(CC#N)C5)cc4c3c(C)c2C)cn2ncnc12 [Example 39] | 1240 | 4 | 11
